Measurements from PubChem BioAssay AID330 (DTP/NCI, 2004).
Several values for one entry are separate records, joined by “and”; a condition that tells them apart may be missing. Identical values can stand only once. Toxic doses and inconclusive results are not listed. The calls were made as follows: active = survival T/C of 150% or more; inactive = T/C below 125% in these data.

System: P388 leukemia ip, CD2F1 mice, survival T/C
Assay: NCI In Vivo Anticancer Drug Screen. Data for tumor model P388 Leukemia (intraperitoneal) in CD2F1 (CDF1) mice
Details: endpoint: median survival time, higher = longer survival
Method in brief: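 Mice carrying the transplanted tumor received test compound or vehicle. Survival was recorded in each group, and the value is the treated-group measurement divided by that of the vehicle-treated control group.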

[1] = dose: 100.0 mg/kg/injection, schedule: Q04DX003 (ip), vehicle: saline
[2] = dose: 200.0 mg/kg/injection, schedule: Q04DX003 (ip), vehicle: saline

Measured: T/C

CCCCCCCCCCC(OC(C)=O)C1CCC(C2CCC(C(O)CCCCCCCCCCCCC3C=C(C)OC3=O)O2)O1 (centres undefined)
inactive: dose: 0.25 mg/kg/injection, schedule: Q01DX005 (ip), vehicle: water 111 % of control | dose: 0.5 mg/kg/injection, schedule: Q01DX005 (ip), vehicle: water 124 % of control

COC(=O)c1cc(=O)n(-c2ccccc2)c(SC)n1
inactive: dose: 6.25 mg/kg/injection, schedule: Q04DX002 (ip), vehicle: Klucel (hydroxypropylcellulose) (HPC) 106 % of control | dose: 12.5 mg/kg/injection, schedule: Q04DX002 (ip), vehicle: Klucel (hydroxypropylcellulose) (HPC) 96 % of control | dose: 25.0 mg/kg/injection, schedule: Q04DX002 (ip), vehicle: Klucel (hydroxypropylcellulose) (HPC) 98 % of control | dose: 50.0 mg/kg/injection, schedule: Q04DX002 (ip), vehicle: Klucel (hydroxypropylcellulose) (HPC) 104 % of control | dose: 100.0 mg/kg/injection, schedule: Q04DX002 (ip), vehicle: Klucel (hydroxypropylcellulose) (HPC) 100 % of control and 98 % of control

C=CCN1CCCC1=O
inactive: [1] 100 % of control | [2] 100 % of control | dose: 400.0 mg/kg/injection, schedule: Q04DX003 (ip), vehicle: saline 95 % of control

CCOc1c(N=Nc2ccc(C)cc2)c(C)nn1C(=S)SC
inactive: dose: 60.0 mg/kg/injection, schedule: Q01DX005 (ip), vehicle: Klucel + Tween-80 100 % of control | dose: 120.0 mg/kg/injection, schedule: Q01DX005 (ip), vehicle: Klucel + Tween-80 94 % of control | dose: 240.0 mg/kg/injection, schedule: Q01DX005 (ip), vehicle: Klucel + Tween-80 100 % of control

O=C1NC(c2ccccc2)(c2ccccc2)C(=O)N1CN1CCc2ccccc2C1
inactive: dose: 60.0 mg/kg/injection, schedule: Q01DX005 (ip), vehicle: Klucel (hydroxypropylcellulose) (HPC) 90 % of control | dose: 120.0 mg/kg/injection, schedule: Q01DX005 (ip), vehicle: Klucel (hydroxypropylcellulose) (HPC) 91 % of control | dose: 240.0 mg/kg/injection, schedule: Q01DX005 (ip), vehicle: Klucel (hydroxypropylcellulose) (HPC) 90 % of control

CC(NC(=O)c1ccc(Cl)cc1Cl)c1ccccc1 (centres undefined)
inactive: dose: 50.0 mg/kg/injection, schedule: Q01DX001 (ip), vehicle: other 98 % of control | dose: 100.0 mg/kg/injection, schedule: Q01DX001 (ip), vehicle: other 97 % of control | dose: 200.0 mg/kg/injection, schedule: Q01DX001 (ip), vehicle: other 96 % of control | dose: 400.0 mg/kg/injection, schedule: Q01DX001 (ip), vehicle: other 94 % of control

N#CNC1=NCOCN1
inactive: dose: 60.0 mg/kg/injection, schedule: Q01DX005 (ip), vehicle: saline with Tween-80 100 % of control | dose: 120.0 mg/kg/injection, schedule: Q01DX005 (ip), vehicle: saline with Tween-80 100 % of control

NNC(=O)C12CC3CC(CC(C3)C1)C2
inactive: dose: 25.0 mg/kg/injection, schedule: Q01DX005 (ip), vehicle: Klucel (hydroxypropylcellulose) (HPC) 105 % of control | dose: 50.0 mg/kg/injection, schedule: Q01DX005 (ip), vehicle: Klucel (hydroxypropylcellulose) (HPC) 105 % of control | dose: 100.0 mg/kg/injection, schedule: Q01DX005 (ip), vehicle: Klucel (hydroxypropylcellulose) (HPC) 102 % of control | dose: 200.0 mg/kg/injection, schedule: Q01DX005 (ip), vehicle: Klucel (hydroxypropylcellulose) (HPC) 112 % of control

COc1cccc2c1C(=O)c1c(O)c3c(c(O)c1C2=O)C[C@@](O)(C(C)=O)C[C@@H]3OC1CC(N(Cc2ccccc2)Cc2ccccc2)C(O)C(C)O1 (some centres undefined)
inactive: dose: 0.78 mg/kg/injection, schedule: Q01DX009 (ip), vehicle: water 105 % of control | dose: 1.56 mg/kg/injection, schedule: Q01DX009 (ip), vehicle: water 114 % of control | dose: 50.0 mg/kg/injection, schedule: Q01DX009 (ip), vehicle: water 92 % of control | dose: 60.0 mg/kg/injection, schedule: Q04DX003 (ip), vehicle: water 94 % of control
active: dose: 6.25 mg/kg/injection, schedule: Q01DX009 (ip), vehicle: water 156 % of control | dose: 12.5 mg/kg/injection, schedule: Q01DX009 (ip), vehicle: water 189 % of control and 221 % of control | dose: 13.0 mg/kg/injection, schedule: Q04DX003 (ip), vehicle: water 158 % of control | dose: 21.6 mg/kg/injection, schedule: Q04DX003 (ip), vehicle: water 180 % of control | dose: 25.0 mg/kg/injection, schedule: Q01DX009 (ip), vehicle: water 247 % of control and 271 % of control

COc1ccc(C(C)c2cc3c(cc2OCCO)OCO3)cc1O (centres undefined)
inactive: dose: 50.0 mg/kg/injection, schedule: Q01DX005 (ip), vehicle: distilled water + Tween-80 97 % of control | dose: 100.0 mg/kg/injection, schedule: Q01DX005 (ip), vehicle: distilled water + Tween-80 99 % of control | dose: 200.0 mg/kg/injection, schedule: Q01DX005 (ip), vehicle: distilled water + Tween-80 98 % of control

Cn1cncc1/C=N\NC(N)=S
inactive: dose: 25.0 mg/kg/injection, schedule: Q01DX009 (ip), vehicle: saline with Tween-80 102 % of control | dose: 50.0 mg/kg/injection, schedule: Q01DX009 (ip), vehicle: saline with Tween-80 88 % of control | dose: 50.0 mg/kg/injection, schedule: Q04DX003 (ip), vehicle: saline 109 % of control | dose: 100.0 mg/kg/injection, schedule: Q01DX009 (ip), vehicle: saline with Tween-80 110 % of control | [1] 102 % of control | [2] 102 % of control
